Test results: patent US12023335B2, “Method for treating pancreatic cancer” (PTC THERAPEUTICS, INC., priority 2018, dated 2024)
Entries after “also recorded” stand apart in the source; their conditions may differ.

Key:
tubulin = assay: Immunocytochemistry of tubulin and DAPI in Aspc1 cells; format: cell-based, human; details: 24 hours, relative to vehicle (FIGS. 11c, 11d)
Description: Cells were seeded onto glass coverslips in 12-well plates. Coverslips were prepared by soaking in 1N HCl (60° C., 6 hours), washing in 70% ethanol, and coating with poly-l-lysine (Sigma, P5899) according to manufacturer's instructions. Cells were seeded such that they would be 50% confluent the following day. Cells were then treated with vehicle (DMSO, <0.003%) or 1 μM Compound 1 and incubated for 24 hours. Following treatment, cells were washed with TBS and free tubulin was extracted with Brinkley Buffer 1980 (80 mM PIPES pH 6.8, 1 mM MgCl2, 1 mM EGTA) supplemented with 4 mM EGTA and 0.5% Triton-X (30 seconds). After extraction, cells were fixed for 20 minutes in 4% formaldehyde diluted in Cytoskeleton Buffer (10 mM MES pH 6.1, 138 mM KCl, 3 mM MgCl2, 2 mM EGTA) supplemented with 0.32M sucrose. […]
Confocal imaging was performed using an A1 laser scanning confocal attachment on an Eclipse Ti microscope stand using a 60x/1.49 ApoTIRF oil-immersion objective and standard lasers and filter sets (Nikon Instruments, Melville, N.Y.). […] Images were visualized, analyzed, and prepared for publication using the Fiji distribution of ImageJ (Schindelin J, Arganda-Carreras I, Frise E, et al. Fiji: an open-source platform for biological-image analysis. Nature Methods 2012; 9:676-682). […]

BMI-1 = assay: Western blot of BMI-1 levels in PDA cell lines; format: cell-based, human; details: Aspc1, MiaPaCa-2, Panc1 cells; 0.1 μM or 1.0 μM, 24 hours (FIG. 10a)
Description: Western blotting was carried out on lysates isolated from treated cells. Cells were lysed using RIPA buffer (50 mM Tris, pH 7.4, 150 mM NaCl, 1% Nonidet P-40, 0.1% SDS, 0.5% deoxycholate) supplemented with cOmplete™ EDTA-free Protease Inhibitor Cocktail (Sigma, 11836170001) and Halt™ Phosphatase Inhibitor Cocktail (ThermoFisher, 78420). Lysates were quantified using the Pierce BCA Protein Assay Kit (ThermoFisher, 23227), diluted in SDS sample buffer, resolved by SDS-PAGE (15-30 μg/sample), and transferred onto PVDF membranes. Membranes were blocked with 5% w/v nonfat dry milk in TBS-T (0.1% Tween20) and primary antibodies were incubated overnight at 4° C., diluted in 5% BSA in TBS-T at the indicated concentrations. HRP-conjugated secondary antibodies were incubated in blocking buffer for 1 hour at room temperature before detection using Super Digital-ECL™ substrate solution (Kindle Biosciences, R1002). (FIG. 5b, FIG. 10a and FIG. 11b)
Western Blot Antibodies: • Bmi1: Cell Signaling, #5856, 1:1000 • Vinculin: Cell Signaling, #4650S, 1:1000 • Beta-tubulin: Cell Signaling, #2146S, 1:1000 P-Glycoprotein Substrate Activity Experiment

[1] = system: J1002VEH and J1002TAM cells; assay: Cell cycle analysis of J1002VEH and J1002TAM cells; format: cell-based, mouse
Description: Cells were seeded into 12-well or 6-well plates such that 16 hours later they would be approximately 30-50% confluent. Cells were then treated for 24 hours with either DMSO (<0.003%), Compound 1 (100 nM or 1 μM), or 100 nM nocodazole (Sigma, M1404). Following treatment, cells were harvested and fixed in ice-cold 70% ethanol for a minimum of one hour. Following fixation, cells were re-suspended in PBS+2% FBS+3 μM DAPI (BioLegend, 422801) or 0.25 μg 7-AAD (BD Pharmingen, 559925), and analyzed on a MACSQuant® Analyzer 10 (Miltenyi Biotec) or BD LSR II™. For cell cycle analysis time course experiments, cells were prepared as described above, except treated for 24, 48, or 72 hours. Data was analyzed using FlowJo software. Percent populations in G2/M were identified using the univariate cell cycle platform offered by FlowJo software. Percent populations >4N were determined by gating above the 4N population of DMSO-treated cells. (FIG. 1b, FIG. 1c, FIG. 2a, FIG. 2b, FIG. 10e, and FIG. 10g)

[2] = target: T1, tubulin from porcine brain (Sus scrofa, UniProt P02550+P02554); assay: Cell-free tubulin polymerization assay; format: biochemical; details: 0.12, 0.37, 1.11, 3.33 and 10 μM (FIGS. 11e, 11f)
T1 construct: which uses >99% pure tubulin from porcine brain; purchased Cytoskeleton #BK011P; host or cells: porcine brain (tissue-purified)
Description: Assays were carried out according to manufacturer's recommendations using the fluorescence-based tubulin polymerization assay kit from Cytoskeleton (#BK011P) which uses >99% pure tubulin from porcine brain. All drugs used were dissolved in DMSO and then diluted in ultrapure water to 10× final concentration. Final percentage of DMSO was kept constant for all samples. Tubulin was prepared by resuspension at 2 mg/mL in 80 mM PIPES pH 6.9, 2.0 mM MgCl2, 0.5 mM EGTA, 1.0 mM GTP, 15% glycerol, and 10 μM fluorescent reporter. All drug samples (10×) were added to a pre-warmed half-area 96-well plate (Corning Costar, 3686) in duplicate, and then warmed to 37° C. for 1 min. Tubulin (50 μL/well) was then added to all wells, and the plate was placed in a plate reader pre-warmed to 37° C. The plate was mixed by medium, orbital shaking for 5 seconds, and fluorescence measured every 60 seconds for 90 minutes (Ex: 340-360+/−20 nm, Em: 410-460 nm+/−20 nm) in a BioTek Synergy 2 plate reader. Polymerization rates (fluorescence units/minute) were determined by measuring the maximal slope (by linear regression) of the linear portion of the growth phase of the polymerization curve. (FIG. 11e and FIG. 11f)

T1 sequence (P02554 whole entry): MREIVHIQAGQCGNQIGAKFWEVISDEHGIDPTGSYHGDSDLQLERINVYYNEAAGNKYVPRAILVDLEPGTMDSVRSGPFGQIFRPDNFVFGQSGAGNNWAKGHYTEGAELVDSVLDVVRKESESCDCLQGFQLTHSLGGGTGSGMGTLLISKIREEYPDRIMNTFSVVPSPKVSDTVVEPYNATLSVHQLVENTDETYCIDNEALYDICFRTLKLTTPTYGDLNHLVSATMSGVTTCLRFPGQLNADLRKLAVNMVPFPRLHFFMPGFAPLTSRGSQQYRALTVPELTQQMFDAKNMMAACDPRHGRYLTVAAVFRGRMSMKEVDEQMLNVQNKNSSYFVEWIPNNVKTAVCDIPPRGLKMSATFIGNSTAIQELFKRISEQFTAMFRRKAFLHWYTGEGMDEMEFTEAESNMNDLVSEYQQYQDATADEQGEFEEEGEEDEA
T1 sequence (P02550 whole entry): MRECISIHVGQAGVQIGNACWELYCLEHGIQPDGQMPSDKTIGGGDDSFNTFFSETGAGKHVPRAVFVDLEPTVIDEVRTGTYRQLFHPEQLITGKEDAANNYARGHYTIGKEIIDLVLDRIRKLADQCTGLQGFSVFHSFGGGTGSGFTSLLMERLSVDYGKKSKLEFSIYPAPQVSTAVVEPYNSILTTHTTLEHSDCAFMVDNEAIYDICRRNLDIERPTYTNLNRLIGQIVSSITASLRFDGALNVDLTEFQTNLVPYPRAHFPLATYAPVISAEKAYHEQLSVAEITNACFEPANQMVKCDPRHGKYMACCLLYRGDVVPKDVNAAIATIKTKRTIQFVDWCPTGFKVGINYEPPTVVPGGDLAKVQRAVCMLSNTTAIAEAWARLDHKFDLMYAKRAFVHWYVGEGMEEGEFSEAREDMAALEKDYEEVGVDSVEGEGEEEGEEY

SMILES: Cc1nc2ccc(F)cc2n1-c1nc(N)c(F)c(Nc2ccc(C(F)(F)F)cc2)n1 [Compound 1, 5-fluoro-2-(6-fluoro-2-methyl-1H-benzo[d]imidazol-1-yl)-N4-[4-(trifluoromethyl)phenyl]pyrimidine-4,6-diamine]
- tubulin staining in Aspc1 cells (tubulin): significant reduction in tubulin formation
- BMI-1 levels relative to vinculin (BMI-1): consistent reduction in BMI-1 protein expression in various cell types
- cell cycle distribution / polyploidy of J1002VEH and J1002TAM cells ([1]; 1.0 μM, 24 hours (FIGS. 10d-10g)): dose and time-dependent increase in the amount of BMI-1 dependent cells affected by polyploidy
- BMI-1 hyperphosphorylation (conclusion from FIG. 10 data as a whole) ([1]; data taken as a whole): induces BMI-1 hyperphosphorylation indirectly as a result of mitotic arrest
- tubulin polymerization (fluorescence units/minute) [2]: function as a microtubule polymerization inhibitor; also recorded: dose-dependent decrease in tubulin polymerization; also recorded: directly inhibits microtubule formation
